# Source: patent publication US7115612B2, “Arylsulfonamides as antiviral agents” (Bayer Aktiengesellschaft, priority 2001, dated 2006)
# pEC50: −log10 of the molar value.
# Legend:
# [1] = Cytotoxicity on HELF cells in the anti-HCMV cytopathogenicity test; type: cell-based; conditions: human lung fibroblasts (HELF cells), 6 days incubation, visual evaluation
# Experimental: (§1) The test compounds were employed as 50 millimolar (mM) solutions in dimethyl sulphoxide (DMSO). Ganciclovir, foscarnet and cidofovir served as reference compounds. Following the addition of in each case 2 μl of the 50, 5, 0.5 and 0.05 mM DMSO stock solutions to in each case 98μ of cell culture medium in row […], in duplicate determinations, 1:2 dilutions with in each case 50 μl of medium were prepared up to row 11 of the 96-well plate. The wells in rows 1 and 12 each contained 50 μl of medium. 150 μl of a suspension of 1×10^4 cells (human lung fibroblasts [HELF]) (row 1=cell control) or, in rows 2-12, a mixture of HCMV-infected and non-infected HELF cells (M.O.I.=0.001-0.002), i.e. 1-2 infected cells per 1000 non-infected cells, were then pipetted into each of the wells. Row 12 (without substance) served as virus control. The final test concentrations were 250-0.0005 μM. The plates were incubated at 37° C./5% CO2 for 6 days, i.e. until all cells in the virus controls had been infected (100% cytopathogenic effect [CPE]). The wells were then fixed and stained by adding a mixture of Formalin and Giemsa Stain (30 minutes), washed with doubly distilled water and dried in a drying cabinet at 50° C. The plates were then evaluated visually using an overhead microscope (plaque multiplier from Technomara). From the test plates, the following data were determined: CC50 (HELF)=substance concentration in μM at which, compared to the untreated cell control, no visible cytostatic effects on the cells were noticeable;
# HCMV = assay: Anti-HCMV cytopathogenicity test; type: cell-based, human cytomegalovirus; conditions: for pEC50: Human betaherpesvirus 5, 144 h, inhibition of CPE by 50% in HCMV-infected HELF cells, M.O.I. 0.001–0.002, 6 days; for SI HCMV: selectivity index = CC50 (HELF)/EC50 (HCMV)
# Experimental: Anti-HCMV (Anti-Human Cytomegalovirus) and anti-MCMV (Anti-Murine Cytomegalovirus) cytopathogenicity tests: The test compounds were employed as 50 millimolar (mM) solutions in dimethyl sulphoxide (DMSO). Ganciclovir, foscarnet and cidofovir served as reference compounds. Following the addition of in each case 2 μl of the 50, 5, 0.5 and 0.05 mM DMSO stock solutions to in each case 98μ of cell culture medium in row […], in duplicate determinations, 1:2 dilutions with in each case 50 μl of medium were prepared up to row 11 of the 96-well plate. The wells in rows 1 and 12 each contained 50 μl of medium. 150 μl of a suspension of 1×10^4 cells (human lung fibroblasts [HELF]) (row 1=cell control) or, in rows 2-12, a mixture of HCMV-infected and non-infected HELF cells (M.O.I.=0.001-0.002), i.e. 1-2 infected cells per 1000 non-infected cells, were then pipetted into each of the wells. Row 12 (without substance) served as virus control. The final test concentrations were 250-0.0005 μM. The plates were incubated at 37° C./5% CO2 for 6 days, i.e. until all cells in the virus controls had been infected (100% cytopathogenic effect [CPE]). The wells were then fixed and stained by adding a mixture of Formalin and Giemsa Stain (30 minutes), washed with doubly distilled water and dried in a drying cabinet at 50° C. The plates were then evaluated visually using an overhead microscope (plaque multiplier from Technomara). From the test plates, the following data were determined: EC50 (HCMV)=substance concentration in μM which inhibits the CPE (cytopathic effect) by 50% compared to the untreated virus control; SI (selectivity index)=CC50 (HELF)/EC50 (HCMV).
# [2] = Cytotoxicity on 3T3 cells in the anti-MCMV cytopathogenicity test; type: cell-based; conditions: mouse, 3T3 mouse cells, 5 days incubation
# Experimental: (§2) The test compounds were employed as 50 millimolar (mM) solutions in dimethyl sulphoxide (DMSO). Ganciclovir, foscarnet and cidofovir served as reference compounds. Following the addition of in each case 2 μl of the 50, 5, 0.5 and 0.05 mM DMSO stock solutions to in each case 98μ of cell culture medium in row 2 A-H, in duplicate determinations, 1:2 dilutions with in each case 50 μl of medium were prepared up to row 11 of the 96-well plate. The wells in rows 1 and 12 each contained 50 μl of medium. 150 μl of a suspension of 1×10^4 cells (human lung fibroblasts [HELF]) (row 1=cell control) or, in rows 2–12, a mixture of HCMV-infected and non-infected HELF cells (M.O.I.=0.001–0.002), i.e. 1–2 infected cells per 1000 non-infected cells, were then pipetted into each of the wells. Row 12 (without substance) served as virus control. The final test concentrations were 250–0.0005 μM. The plates were incubated at 37° C./5% CO2 for 6 days, i.e. until all cells in the virus controls had been infected (100% cytopathogenic effect [CPE]). The wells were then fixed and stained by adding a mixture of Formalin and Giemsa Stain (30 minutes), washed with doubly distilled water and dried in a drying cabinet at 50° C. The plates were then evaluated visually using an overhead microscope (plaque multiplier from Technomara).
# (§3) CC50 (HELF)=substance concentration in μM at which, compared to the untreated cell control, no visible cytostatic effects on the cells were noticeable;
# (§4) Compared to the process described above for HCMV, the anti-MCMV test was carried out with the following changes: a cell-free virus suspension was mixed with a concentrated cell suspension (3T3 mouse cells) and incubated for 15 minutes for adsorption of the viruses, and the suspension was then diluted with medium to 1.3×10^5 cells/ml with a final multiplicity of infection (M.O.I.) of from 0.05–0.1, and in each case 150 μl were dispensed into the wells. The incubation time was 5 days.
# MCMV = assay: Anti-MCMV cytopathogenicity test; type: cell-based, murine cytomegalovirus; conditions: for pEC50: Murid betaherpesvirus 1, 120 h, MCMV-infected 3T3 mouse cells, M.O.I. 0.05–0.1, 5 days; for SI MCMV: selectivity index, 3T3 CC50 / MCMV EC50
# Experimental: Anti-HCMV (Anti-Human Cytomegalovirus) and anti-MCMV (Anti-Murine Cytomegalovirus) cytopathogenicity tests:
# as §2, §4
# [3] = test system: human lung fibroblasts [HELF]; assay: Cytotoxicity on HELF cells in the anti-HCMV cytopathogenicity test; type: cell-based; conditions: 6 days incubation, visual evaluation
# Experimental: as §1
# 3T3 mouse cells = assay: Cytotoxicity on 3T3 cells in the anti-MCMV cytopathogenicity test; type: cell-based; conditions: 5 days incubation
# Experimental: as §2, §3, §4
melting point [°C],pEC50 (HCMV),pEC50 (MCMV),Structure (SMILES),CC50 at 6 days [1] [nM],SI HCMV (HCMV),CC50 at 5 days [2] [nM],SI MCMV (MCMV),CC50 [3] [nM],CC50 (3T3 mouse cells) [nM]
178.9,7.26,7.72,"CC(C)(CF)C(=O)Nc1cccc(NS(=O)(=O)c2ccc(-c3noc(-c4ccccn4)n3)cc2)c1 [Example 1, 3-Fluoro-2,2-dimethyl-N-{3-[({4-[5-(2-pyridinyl)-1,2,4-oxadiazol-3-yl]phenyl}-sulphonyl)amino]phenyl}propanamide]",110000,2000,33000,1737,–,–
202,7.74,8.10,"CC1(C(=O)Nc2cccc(NS(=O)(=O)c3ccc(-c4noc(-c5ccccn5)n4)cc3)c2)CC1 [Example 3, 1-Methyl-N-{3-[({4-[5-(2-pyridinyl)-1,2,4-oxadiazol-3-yl]phenyl}sulphonyl)-amino]phenyl}cyclopropanecarboxamide]",< 140000,<7778,23000,2875,–,–
–,7.74,7.17,"Cc1cc(-c2nc(-c3ccc(S(=O)(=O)Nc4cccc(NC(=O)C5(C)CC5)c4)cc3)no2)n[nH]1 [Example 9, 1-Methyl-N-{3-[({4-[5-(5-methyl-1H-pyrazol-3-yl)-1,2,4-oxadiazol-3-yl]phenyl}-sulphonyl)amino]phenyl}cyclopropanecarboxamide]",–,2167,–,59,39000,4000
–,8.28,7.96,"CC(C)(CF)C(=O)Nc1cccc(NS(=O)(=O)c2ccc(-c3noc(-c4cccc(N)n4)n3)cc2)c1 [Example 135, N-{3-[({4-[5-(6-Amino-2-pyridinyl)-1,2,4-oxadiazol-3-yl]phenyl}sulphonyl)amino]-phenyl}-3-fluoro-2,2-dimethylpropanamide]",47000,9039,3000,273,–,–
